Laboratory results taken from patent US9668951B2, “Pharmaceutical compositions comprising renewably-based biodegradable 1,3-propanediol” (DuPont Tate & Lyle Bio Products Company, LLC, priority 2006, dated 2017).

How the values were obtained:
[1] = tested on: human skin; test: human skin patch test, 5, 25 and 50% (induction and challenge phases); assay type: in vivo; conditions: diluted with D.I. water to 5%, 105 panelists completed
Excerpt: (§1) Based on these studies PDO is not expected to be a skin irritant or sensitizer in humans.
The purpose of this study was to determine the potential of biologically-derived 1,3-propanediol, diluted to concentrations of 5%, 25%, and 50%, to cause irritation or delayed contact hypersensitivity in humans. The method employed in carrying out this test, described below, was similar to that described in “Appraisal of the Safety of Chemicals in Foods, Drugs and Cosmetics” by J. H. Drake and published by the Association of Food and Drug Officials of the United States, incorporated herein by reference.
Test Panel: The test involved the application of the test article to the upper arms of a group of 112 volunteer panelists. The panelists ranged from 16 to 71 years of age. One hundred and five panelists completed the study. Prior to the initiation of the study, all panelists were in good general health and free of any visible skin disease or anomaly in the area to be patched. Each panelist was required to read, understand and sign an informed consent statement. […]

[2] = tested on: human skin; test: second human skin patch test; assay type: in vivo
Excerpt: as §1

Which results are given for OCCCO [PDO, 1,3-propanediol]?
skin irritant, fatiguing agent, or sensitizing agent [1]: not to be a skin irritant, fatiguing agent, or sensitizing agent; dermal irritation or sensitization reactions ([2]; 25, 50, and 75% PDO at pH 7, or 75% PDO at pH 4 and 9): did not produce any clinically significant dermal irritation or sensitization reactions

How did the “patch test irritation of human skin” value ([2]; 25, 50, and 75% (pH 7)) turn out when CC(O)CO (stereo not drawn) [propylene glycol, reference compound] was run?
The value was “patch test irritants and cumulative irritants”.
